# Values of other authors in PMC11369081, “Molecular mechanism of prolactin-releasing peptide recognition and signaling via its G protein-coupled receptor” (Cell Discovery, 2024).
# Ends that are not written are not given here.
# Test system: PrRPR
# Settings: cited from earlier work
# Protocol: In both structures, the intramolecular motif of W8, Y9, and R12 within PrRP20 stabilizes its α-helical structure (Fig. 2h). […] Th ...
substance,measurement,setting,value
"C-terminal heptapeptide (I14–F20): shortest effective analog is a C-terminal heptapeptide (I14–F20) (IRPVGRF; ends and bridges not checked; UniProt P81277 47-53, looked up, fragment)",affinity of shortest effective analog,"deletion analysis of PrRP20 N-terminal region, vs PrRP20, ref [9]",substantially lower affinity
"PrRP20 analog (W8–F20): PrRP20 analog (W8–F20) (WYASRGIRPVGRF; ends and bridges not checked; UniProt P81277 41-53, looked up, fragment)",activity in vitro,"structure-activity relationship studies, ref [21]",did not show reduced activity in vitro
